The numbers were not newly measured in patent US20260216065A1, “PHARMACEUTICAL COMPOSITIONS FOR NASAL DELIVERY” (Therakind Limited, priority 2023, published 2026), which cites them from elsewhere.

The conditions of the data set: room temperature (25° C.).

Turning to `Cc1nccn1CC1CCc2c(c3ccccc3n2C)C1=O` (racemic) [ondansetron, (RS)-9-Methyl-3-[(2-methyl-1H-imidazol-1-yl)methyl]-2,3-dihydro-1H-carbazol-4(9H)-one], the “time for which nasal spray solutions are stable” value was 48 h.
